Key:
[1] = system: iCasp9-ΔCD19-transduced MSCs; test: In vivo killing studies of iCasp9-ΔCD19 MSCs in murine model; parameters: species or system SCID mice
Experimental: All mouse experiments were performed in accordance with the Baylor College of Medicine animal husbandry guidelines. To assess the persistence of modified MSCs in vivo, a SCID mouse model was used in conjunction with an in vivo imaging system. MSCs were transduced with retroviruses coding for the enhanced green fluorescent protein-firefly luciferase (eGFP-FFLuc) gene alone or together with the iCasp9-ΔCD19 gene. Cells were sorted for eGFP positivity by fluorescence activated cell sorting using a MoFlo flow cytometer (Beckman Coulter, Fullerton, Calif.). Doubly transduced cells were also stained with PE-conjugated anti-CD19 and sorted for PE-positivity. SCID mice (8-10 weeks old) were injected subcutaneously with 5×10^5 MSCs with and without iCasp9-ΔCD19 in opposite flanks. […] For in vivo imaging of MSCs expressing eGFP-FFLuc, mice were injected intraperitoneally with D-luciferin (150 mg/kg) and analyzed using the Xenogen-IVIS Imaging System. Total luminescence (a measurement proportional to the total labeled MSCs deposited) at each time point was calculated by automatically defining regions-of-interest (ROIs) over the MSC implantation sites. These ROIs included all areas with luminescence signals at least 5% above background. Total photon counts were integrated for each ROI and an average value calculated. […]

[2] = system: SLL-peptide pulsed T2 cells; test: IL-2 secretion of iMC-PRAME TCR T cells with SLL-peptide pulsed T2 cells; type: cell-based; details: FIG. 117D
iRC9 (pBP1310 & 1311) = iRC9 (pBP1310 & 1311) (Homo sapiens, UniProt P42345+P62942); test: SRα-SEAP assay of drug specificity, iRC9 switch, 293 cells; details: SRα-SEAP reporter, FIG. 108A
iRC9 (pBP1310 & 1311), sequence (P42345 2025-2113): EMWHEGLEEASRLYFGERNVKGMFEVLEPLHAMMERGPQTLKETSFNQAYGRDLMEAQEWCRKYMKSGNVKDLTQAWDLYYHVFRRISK
iRC9 (pBP1310 & 1311), sequence (P62942 2-107): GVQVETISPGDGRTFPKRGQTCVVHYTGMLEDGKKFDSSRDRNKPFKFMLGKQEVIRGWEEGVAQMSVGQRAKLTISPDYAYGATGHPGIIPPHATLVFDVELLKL
iRC9 (pBP1310 & 1311), sequence (P55211 135-416 partner limits assumed): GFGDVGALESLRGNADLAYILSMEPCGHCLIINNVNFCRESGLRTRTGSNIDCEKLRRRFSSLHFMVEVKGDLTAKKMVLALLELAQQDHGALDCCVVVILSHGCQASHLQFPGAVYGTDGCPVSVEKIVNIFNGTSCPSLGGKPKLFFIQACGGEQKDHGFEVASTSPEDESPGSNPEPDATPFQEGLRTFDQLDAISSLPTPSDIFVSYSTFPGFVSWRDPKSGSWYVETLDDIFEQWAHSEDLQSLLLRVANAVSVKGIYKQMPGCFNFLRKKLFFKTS

Raji-GFP cells = test: Raji-GFP coculture with CD19 CAR-T cells (flow cytometry); type: cell-based, human; details: 2 nM, E:T 1:5, seven days
Experimental: After seven days of incubation the live cells were analyzed for the proportion of GFP labeled tumor cells (left) and for the proportion of total T cells (CD3^+, right) and transduced CAR-T cells (CD34, not shown).
Raji cells (ATCC) labeled by stable expression of Green Fluorescent Protein (Raji-GFP) are a Burkitt's lymphoma cell line that express CD19 on the cell surface and are a target for an anti-CD19 CAR. 50000 Raji-GFP cells were seeded on a 24 well plate with 10000 CAR-T cells, a 1:5 E:T ratio. Media supernatant was taken at 48 hours for determination of cytokine release by activated CAR-T cells. The degree of tumor killing was determined at 7 days and 14 days by flow cytometry (Galeos, Beckman-Coulter) by the proportion of GFP labeled tumor cells and CD3 labeled T cells.

293 cells = test: SEAP assay: iMC (tandem FKBP) scaffold plus FRBL2-Caspase-9; type: cell-based; details: tandem FKBPs (iMC) present
Experimental: FIGS. 16A and 16B are line graphs showing that tandem FKBP scaffold mediates FRBL2. Caspase activation in the presence of rapalogs. FIG. 16A. HEK-293 cells were transfected with 1 μg each of SRα-SEAP reporter plasmid, Δmyr.iMC.2A-anti-CD19.CAR.CD3ζ (pBP0608), and FRBL2. Caspase-9 (pBP0467). […] After ON incubation, cell supernatants were assayed for SEAP activity, as previously described. FIG. 16B. Similar to the experiment described in (FIG. 16A), except that cells were transfected with a membrane-localized (myristoylated) iMC.2A-CD19.CAR.CD3ζ (pBP0609), instead of non-myristoylated Δmyr.iMC.2A-CD19.CAR.CD3ζ (pBP0608).
In a second test for rapalog-mediated scaffold-based activation of Caspase-9, 293 cells were transiently transfected with SRα-SEAP reporter plasmid, plus myristoylated or non-myristoylated inducible iMC co-expressed with 1st generation anti-CD19 CAR, plus FRBL2-fused Caspase-9 (plasmid pBP0467) (FIG. 16).

[3] = system: SK-N-SH neuroblastoma cells; test: Trans-well assay, HLA class I on tumor cells; type: cell-based; details: antigen-independent, FIG. 118B
From the text: FIG. 118: (A) Trans-well assay set-up. (B) Cytokines secreted by transduced T cells in the top well upregulate HLA class I on the surface of SK-N-SH neuroblastoma cells in an antigen-independent, but iMC- and rimiducid-dependent manner.

| Structure (SMILES) | proportion of surviving iCasp9-positive cells after one week ([1]; qPCR iCasp9/eGFP copy ratio) | killing / depletion of iCasp9-positive cells in vivo ([1]; two i.p. injections of 50 μg CID 24 h apart) | IL-2 secretion, PRAME TCR with iMC [2] | ligand required to activate the iRC9 switch (iRC9 (pBP1310 & 1311)) | CAR-T cells with i9+CARζ+MC or FRBFwtMC/FvC9 (Raji-GFP cells) | activation of FRBL2-Caspase-9 (293 cells) | upregulation of HLA class I on the surface of SK-N-SH cells by cytokines of transduced T cells [3] |
| --- | --- | --- | --- | --- | --- | --- | --- |
| CC[C@H](C(=O)N1CCCC[C@H]1C(=O)O[C@H](CCc1ccc(OC)c(OC)c1)c1cccc(OCC(=O)NCC(CNC(=O)COc2cccc([C@@H](CCc3ccc(OC)c(OC)c3)OC(=O)[C@@H]3CCCCN3C(=O)[C@@H](CC)c3cc(OC)c(OC)c(OC)c3)c2)CN(C)C)c1)c1cc(OC)c(OC)c(OC)c1 [AP20187] | 0.7% | > 99% | – | – | – | – | – |
| CC[C@H](C(=O)N1CCCC[C@H]1C(=O)O[C@H](CCc1ccc(OC)c(OC)c1)c1cccc(OCC(=O)NCCNC(=O)COc2cccc([C@@H](CCc3ccc(OC)c(OC)c3)OC(=O)[C@@H]3CCCCN3C(=O)[C@@H](CC)c3cc(OC)c(OC)c(OC)c3)c2)c1)c1cc(OC)c(OC)c(OC)c1 [rimiducid] | – | – | maximal IL-2 secretion | > 100 nM | caused cell death | not activated | rimiducid-dependent |

— patent US20230065562A1, “DUAL CONTROLS FOR THERAPEUTIC CELL ACTIVATION OR ELIMINATION” (Bellicum Pharmaceuticals, Inc., priority 2015, published 2023)
